What was measured:
LEFCH [1] = assay: Example I: postemergence foliar-applied weed control, greenhouse; format: in vivo, Leptochloa chinensis (L.) Nees (Chinese sprangletop); conditions: for Visual Weed Control (%) - 22 DAA LEFCH Obs: foliar; for Visual Weed Control Obs: 20 DAA
Source text: (§1) Seeds or nutlets of the desired test plant species were planted in a soil matrix prepared by mixing a loam or sandy loam soil (e.g., 28.6 percent silt, 18.8 percent clay, and 52.6 percent sand, with a pH of about 5.8 and an organic matter content of about 1.8 percent) and calcareous grit in an 80 to 20 ratio. The soil matrix was contained in plastic pots with a volume of 1 quart and a surface area of 83.6 square centimeters (cm^2). When required to ensure good germination and healthy plants, a fungicide treatment and/or other chemical or physical treatment was applied. The plants were grown for 8-22 days in a greenhouse with an approximate 14 hr photoperiod which was maintained at about 29° C. during the day and 26° C. during the night. Nutrients (Peters Excel® 15-5-15 5-Ca 2-Mg and iron chelate) were applied in the irrigation solution as needed and water was added on a regular basis. Supplemental lighting was provided with overhead metal halide 1000-Watt lamps as necessary. The plants were employed for testing when they reached the first through fourth true leaf stage.
(§2) Treatments consisted of the acid or esters of 4-amino-3-chloro-5-fluoro-6-(4-chloro-2-fluoro-3-methoxy-phenyl)pyridine-2-carboxylic acid (Compound A), each formulated as an SC (suspension concentrate), and various herbicidal components alone and in combination. Forms of compound A were applied on an acid equivalent basis.
(§3) Other herbicidal components were applied on an active ingredient basis and included very long chain fatty acid (VLCFA) synthesis-inhibiting and fatty acid/lipid synthesis-inhibiting herbicides acetochlor (technical grade material), acetochlor+dichlormid formulated as Topnotch®, pretilachlor (technical grade material), butachlor formulated as Butachlor EC, fentrazamide formulated as Fentrazamide EC, thiobencarb formulated as Bolero® 8EC, cafenstrole formulated as Himeadow® WP or Lapost® Flowable, benfuresate formulated as Full Shot®, dimethenamid-P formulated as Outlook®, indanofan (technical grade material), flufenacet formulated as Define® DF, mefenacet (technical grade material), S-metolachlor formulated as Dual® II Magnum, pethoxamid formulated as Successor® 600, and pyroxasulfone (technical grade material).
(§4) Treatment requirements were calculated based upon the rates being tested, the concentration of active ingredient or acid equivalent in the formulation, and a 12 mL application volume at a rate of 187 L/ha.
(§5) For treatments comprised of formulated compounds, measured amounts of compounds were placed individually in 25 mL glass vials and diluted in a volume of 1.25% (v/v) Agri-Dex® crop oil concentrated to obtain 12× stock solutions. […] Application solutions were prepared by adding an appropriate amount of each stock solution (e.g., 1 mL) and diluted to the appropriate final concentrations with the addition of 10 mL of an aqueous mixture of 1.25% (v/v) crop oil concentrate so that the final spray solutions contained 1.25+/−0.05% (v/v) crop oil concentrate.
(§6) For treatments comprised of technical compounds, weighed amounts can be placed individually in 25 mL glass vials and dissolved in a volume of 97:3 v/v acetone/DMSO to obtain 12× stock solutions. […] Application solutions can be prepared by adding an appropriate amount of each stock solution (e.g., 1 mL) and diluted to the appropriate final concentrations with the addition of 10 mL of an aqueous mixture of 1.5% (v/v) crop oil concentrate so that the final spray solutions contain 1.25% (v/v) crop oil concentrate. When technical materials are used, the concentrated stock solutions can be added to the spray solutions so that the final acetone and DMSO concentrations of the application solutions are […], respectively. […]

ECHOR = assay: Example II: in-water applied weed control, transplanted paddy rice, greenhouse; format: in vivo, Echinochloa oryzoides (Ard.) Fritsch (early watergrass)
Description: (§7) Weed seeds or nutlets of the desired test plant species were planted in puddled soil (mud) prepared by mixing a shredded, non-sterilized mineral soil (50.5 percent silt, 25.5 percent clay, and 24 percent sand, with a pH of about 7.6 and an organic matter content of about 2.9 percent) and water at a 1:1 volumetric ratio. The prepared mud was dispensed in 365 mL aliquots into 16-ounce (oz.) non-perforated plastic pots with a surface area of 86.59 square centimeters (cm^2) leaving a headspace of 3 centimeters (cm) in each pot. Mud was allowed to dry overnight prior to planting or transplanting. Rice seeds were planted in Sun Gro MetroMix® 306 planting mixture, which typically has a pH of 6.0 to 6.8 and an organic matter content of about 30 percent, in plastic plug trays. Seedlings at the second or third leaf stage of growth were transplanted into 840 mL of mud contained in 32-oz. non-perforated plastic pots with a surface area of 86.59 cm^2 4 days prior to herbicide application. The paddy was created by filling the headspace of the pots with 2.5 to 3 cm of water. When required to ensure good germination and healthy plants, a fungicide treatment and/or other chemical or physical treatment was applied. The plants were grown for 4-22 days in a greenhouse with an approximate 14 hr photoperiod which was maintained at about 29′C during the day and 26° C. during the night. Nutrients were added as Osmocote® (19:6:12, N:P:K+ minor nutrients) at 2 g per 16-oz. pot and 4 g per 32-oz. pot. Water was added on a regular basis to maintain the paddy flood, and supplemental lighting was provided with overhead metal halide 1000-Watt lamps as necessary. The plants were employed for testing when they reached the first through fourth true leaf stage.
as §2, with “(compound A)” for “(Compound A),”, “concentrate)” for “concentrate),”
(§8) The herbicidal components were applied on an active ingredient basis and included very long chain fatty acid (VLCFA) synthesis-inhibiting and fatty acid/lipid synthesis-inhibiting herbicides acetochlor (technical grade material), acetochlor+dichlormid formulateded as Topnotch®, pretilachlor (technical grade material), butachlor formulated as Butachlor EC, fentrazamide formulated as Fentrazamide EC, thiobencarb formulated as Bolero® 8EC, cafenstrole formulated as Himeadow® WP or Lapost® Flowable, benfuresate formulated as Full Shot®, anilofos (technical grade material), mefenacet (technical grade material), molinate (technical grade material), and thenylchlor (technical grade material).
(§9) Treatment requirements for each compound or herbicidal component were calculated based upon the rates being tested, the concentration of active ingredient or acid equivalent in the formulation, an application volume of 2 mL per component per pot, and an application area of 86.59 cm^2 per pot.
(§10) For formulated compounds, a measured amount was placed in an individual 100 or 200 mL glass vial and was dissolved in a volume of 1.25% (v/v) Agri-Dex® crop oil concentrate to obtain application solutions.
(§11) For technical grade compounds, a weighed amount was placed in an individual 100 to 200 mL glass vial and was dissolved in a volume of acetone to obtain concentrated stock solutions. […] The concentrated stock solutions obtained were diluted with an equivalent volume of an aqueous mixture containing 2.5% (v/v) crop oil concentrate so that the final application solutions contained 1.25% (v/v) crop oil concentrate.
(§12) Applications were made by injecting with a pipetter appropriate amounts of the application solutions, individually and sequentially, into the aqueous layer of the paddy. Control plants were treated in the same manner with the solvent blank. […]

BRAPP = assay: Example I: postemergence foliar-applied weed control, direct seeded rice weeds, greenhouse; format: in vivo; conditions: for Visual Weed Control (%) - 22 DAA BRAPP Obs: foliar; for Visual Weed Control Obs: 20 DAA
Source text: as §1, §2, §3, §4, §5, §6

CYPIR = assay: Example I: postemergence foliar-applied weed control, greenhouse; format: in vivo, Cyperus iria L. (rice flatsedge); conditions: foliar
Source text: as §1, §2, §3, §4, §5, §6

LEFCH [2] = assay: Example II: in-water applied weed control, transplanted paddy rice, greenhouse; format: in vivo, Leptochloa chinensis (L.) Nees (Chinese sprangletop); conditions: 19 DAA
Description: as §7
as §2, with “(compound A)” for “(Compound A),”, “concentrate)” for “concentrate),”
as §8, §9, §10, §11, §12

CYPRO = assay: as above; format: in vivo, Cyperus rotundus L. (purple nutsedge)
Description: as §7
as §2, with “(compound A)” for “(Compound A),”, “concentrate)” for “concentrate),”
as §8, §9, §10, §11, §12

IPOHE = assay: Example I: postemergence foliar-applied weed control, greenhouse; format: in vivo, Ipomoea hederacea Jacq. (ivyleaf morningglory); conditions: 20 DAA
Source text: as §1, §2, §3, §4, §5, §6

ECHCG [3] = assay: as above; format: in vivo, Echinochloa crus-galli (L.) Beauv. (barnyardgrass); conditions: 20 DAA
Source text: as §1, §2, §3, §4, §5, §6

ECHCO = assay: as above; format: in vivo, Echinochloa colona (L.) Link (junglerice); conditions: 20 DAA
Source text: as §1, §2, §3, §4, §5, §6

ECHCG [4] = assay: Example II: in-water applied weed control, transplanted paddy rice, greenhouse; format: in vivo, Echinochloa crus-galli (L.) Beauv. (barnyardgrass)
Description: as §7
as §2, with “(compound A)” for “(Compound A),”, “concentrate)” for “concentrate),”
as §8, §9, §10, §11, §12

In the case of `CN(C(=O)COc1nc2ccccc2s1)c1ccccc1` [Mefenacet, 2-(2-benzothiazolyloxy)-N-methyl-N-phenylacetamide], the “Visual Weed Control (%) - 22 DAA LEFCH Obs” value (LEFCH [1]; 50 gai/ha) is reported as 10%, the “Visual Weed Control (%) - 22 DAA LEFCH Obs” value (LEFCH [1]; 100 gai/ha) is reported as 0% and the pest or weed control at 300 g/ha (ECHOR; Echinochloa oryzoides, 504 h, 300 gai/ha, 21 DAA, read-out: Visual Weed Control ECHOR Obs) is reported as 80%. The pest or weed control at 600 g/ha (ECHOR; Echinochloa oryzoides, 504 h, 600 gai/ha, 21 DAA, read-out: Visual Weed Control ECHOR Obs) was 100%, the pest or weed control at 1200 g/ha (ECHOR; Echinochloa oryzoides, 504 h, 1200 gai/ha, 21 DAA, read-out: Visual Weed Control ECHOR Obs) was 100% and the “Visual Weed Control (%) - 22 DAA BRAPP Obs” value (BRAPP; 50 gai/ha) was 0%. The “Visual Weed Control (%) - 22 DAA BRAPP Obs” value (BRAPP; 100 gai/ha) was 0%, the “Visual Weed Control (%) - 22 DAA BRAPP Obs” value (BRAPP; 200 gai/ha) was 0% and the “Visual Weed Control (%) - 22 DAA CYPIR Obs” value (CYPIR; 100 gai/ha) was 0%. For the same molecule, the “Visual Weed Control (%) - 22 DAA CYPIR Obs” value (CYPIR; 200 gai/ha) was 20%.

In the case of `COc1ccsc1CN(C(=O)CCl)c1c(C)cccc1C` [Thenylchlor, 2-chloro-N-(2,6-dimethylphenyl)-N-[(3-methoxy-2-thienyl)methyl]acetamide], the “Visual Weed Control LEFCH Obs” value (LEFCH [2]; 135 gai/ha) is reported as 15%, the “Visual Weed Control LEFCH Obs” value (LEFCH [2]; 270 gai/ha) is reported as 25% and the pest or weed control at 135 g/ha (ECHOR; Echinochloa oryzoides, 456 h, 135 gai/ha, 19 DAA, read-out: Visual Weed Control ECHOR Obs) is reported as 35%. The pest or weed control at 270 g/ha (ECHOR; Echinochloa oryzoides, 456 h, 270 gai/ha, 19 DAA, read-out: Visual Weed Control ECHOR Obs) was 90%.

`CCCCOCN(C(=O)CCl)c1c(CC)cccc1CC` [Butachlor, N-(butoxymethyl)-2-chloro-N-(2,6-diethylphenyl)acetamide] was tested, and the “Visual Weed Control Obs” value (LEFCH [1]; 112.5 gai/ha) was 0%, the “Visual Weed Control Obs” value (LEFCH [1]; 225 gai/ha) was 0% and the “Visual Weed Control Obs” value (LEFCH [1]; 450 gai/ha) was 0%. For the same molecule, the “Visual Weed Control (%) - 21 DAA CYPRO Obs” value (CYPRO; 225 gai/ha) was 0%, the “Visual Weed Control (%) - 21 DAA CYPRO Obs” value (CYPRO; 450 gai/ha) was 0% and the “Visual Weed Control Obs” value (IPOHE; 112.5 gai/ha) was 20%. For the same molecule, the “Visual Weed Control Obs” value (IPOHE; 450 gai/ha) was 30%, the “Visual Weed Control Obs” value (ECHCG [3]; 112.5 gai/ha) was 0% and the “Visual Weed Control Obs” value (ECHCG [3]; 225 gai/ha) was 0%. For the same molecule, the “Visual Weed Control Obs” value (ECHCG [3]; 450 gai/ha) was 0%, the “Visual Weed Control Obs” value (ECHCO; 112.5 gai/ha) was 0% and the “Visual Weed Control Obs” value (ECHCO; 225 gai/ha) was 0%. The “Visual Weed Control Obs” value (ECHCO; 450 gai/ha) was 0%, the “Visual Weed Control (%) - 21 DAA ECHOR Obs” value (ECHOR; 225 gai/ha) was 0% and the “Visual Weed Control (%) - 21 DAA ECHOR Obs” value (ECHOR; 450 gai/ha) was 20%. For the same molecule, the “Visual Weed Control Obs” value (BRAPP; 112.5 gai/ha) was 0%, the “Visual Weed Control Obs” value (BRAPP; 225 gai/ha) was 0% and the “Visual Weed Control Obs” value (BRAPP; 450 gai/ha) was 0%. For the same molecule, the “Visual Weed Control (%) - 21 DAA ECHCG Obs” value (ECHCG [4]; 225 gai/ha) was 40% and the “Visual Weed Control (%) - 21 DAA ECHCG Obs” value (ECHCG [4]; 450 gai/ha) was 20%.

From US20130310256A1, “HERBICIDAL COMPOSITIONS COMPRISING 4-AMINO-3-CHLORO-5-FLUORO-6-(4-CHLORO-2-FLUORO-3-METHOXYPHENYL) PYRIDINE-2-CARBOXYLIC ACID OR A DERIVATIVE THEREOF AND VLCFA AND LIPID SYNTHESIS INHIBITING HERBICIDES” (DOW AGROSCIENCES LLC, priority 2008, published 2013)
